Laboratory results as given in patent US12076444B2, “Methods and systems for depositing active ingredients on substrates” (Purdue Research Foundation, priority 2015, dated 2024).
Read-outs that look alike come from different tables or passages of the source.

Columns and labels:
[1] = API particle skeletal (true) density, helium gas pycnometry; type: physicochemical; settings: mean of four powder samples, ambient about 22° C.
Procedure: The AccuPyc II 1340 Gas Displacement Pycnometry System (Micromeritics Instrument Corporation, Norcross, Ga.) was used to determine the skeletal density of the micronized acetaminophen powder. The AccuPyc II 1340 instrument determines the volume occupied by powder sample, and with knowledge of the sample mass (determined on a XS105 DualRange (Mettler Toledo, Switzerland)) the skeletal density is calculated; purge cycles function to clear the chamber of residual volatile species and occur prior to the measurement cycles. Helium gas was used as the measurement gas, and the following instrument specifications were used in each powder sample: 10 purges (purge fill pressure 19.5 psig), 10 cycles (cycle fill pressure 19.5 psig), pressure equilibration rate 0.0050 psig/min, 3.5 cm^3 cell volume. Performed at ambient conditions of 22° C. and 52% relative humidity, the density reported here corresponds to the mean value obtained from measurement of four powder samples. The density of micronized acetaminophen powder was determined to be 1.3285 g/cm^3.
(§1) Skeletal density was determined by the same procedure described in Example 31; testing was performed at ambient conditions of 22° C. and 51% relative humidity. The density reported here corresponds to the mean value obtained from measurement of four powder samples; the density of semi-fine acetaminophen powder was determined to be 1.3274 g/cm^3.
as §1, with “22.6°” for “22°”, “53%” for “51%”, “mefenamic acid” for “semi-fine acetaminophen”, “1.2706 g/cm^3” for “1.3274 g/cm^3.”

[2] = API powder bulk density, tapped density tester; type: physicochemical
Procedure: In order to determine the solid volume fractions under which the mixtures of the micronized acetaminophen powder and NEOBEE® 895 would flow as a suspension, bulk density measurements were taken using the 350 Tapped Density Tester (Agilent Technologies, Santa Clara, Calif.), housed in an acoustic cabinet. The test was performed in accordance with ASTM standard D7481-09 (equivalent to USP Method 1) using a 100 mL graduated cylinder with drop height of 14±2 mm at a rate of 300 drops per minute. The mass of the powder sample was determined on a MS8001S NewClassic MF (Mettler Toledo, Switzerland) resulting in a bulk density of 0.36 g/cm^3 after 6000 taps, measured at 21.9° C. and 40% relative humidity.
Bulk density was determined by the same procedure described in Example 32; testing was performed at 22.1° C. and 45% relative humidity.

[3] = API particle size, static image analysis (Malvern Morphologi G3-ID); type: physicochemical; settings: dry powder
Procedure: The micronized acetaminophen particle size distribution was obtained using the Malvern Morphologi G3-ID, which employs static image analysis to determine morphology. Powder samples of 7 mm^3 were obtained using a standard scoop, transferred to the attached dispersion unit (operated with 0.1 bar pressure and 60 second dispersion cycle) and analyzed at 20× magnification.
Particle morphology was determined in the same manner described in Example 33, but at a magnification of 5×.

[4] = Raman microscopy of dosage forms; type: physicochemical
Procedure: After deposition of the drops onto the film, the crystal structure of the mevastatin-PEG 3350 melt formulations were analyzed with a Raman RXN1 Microprobe (Kaiser Optical Systems, MI). First the spectra of pure mevastatin and PEG 3350 solid dispersions were obtained. Mevastatin and PEG 3350 powders were heated above their melting temperatures, to 152° C. and 60° C., respectively. The melts of pure mevastatin and pure PEG 3350 were solidified at room temperature and then analyzed to obtain the spectra of pure compounds. The spectra of the melt formulation consisting of 15% mevastatin and 85% PEG 3350 were obtained by analyzing the drops of the melt formulation deposited using the dropwise additive manufacturing process.
A Thermo Scientific DRX Raman Microscope equipped with a 532 nm laser is used to analyze the solid state form of the drug present in the melt formulations. First, the spectra of pure crystalline celecoxib and gelucire 44/14 solid dispersion are obtained. Pure celecoxib and pure gelucire 44/14 are analyzed to obtain the spectra of pure compounds. […]
The form of celecoxib in the dosage forms is analyzed with a Raman microscope to investigate the effect of gelucire on crystallization of celecoxib within the deposits.

[5] = 15% naproxen 85% PEG 3350 melt dosage forms

SMILES | Skeletal (true) density [1] [g/mL] | Bulk density ([2]; after 6000 taps) [g/mL] | Sauter mean diameter [3] [μm] | d90 [3] [μm] | Bulk density ([2]; after 8000 taps) [g/mL] | Physical form of the drug in the dosage forms (Raman) ([4]; 15% mevastatin 85% PEG 3350 melt dosage forms) | Physical form of the drug in the dosage forms (Raman) [4, 5] | Physical form of the drug in the dosage forms (X-ray diffraction) [5] | Physical form of the drug in the dosage forms (X-ray diffraction) (15% naproxen 85% Pluronic F38 melt dosage forms)
CC(=O)Nc1ccc(O)cc1 [micronized acetaminophen, acetaminophen (paracetamol)] | 1.3285 | 0.36 | 22.05 | 75.29 |  |  |  |  | 
Cc1cccc(Nc2ccccc2C(=O)O)c1C [mefenamic acid] | 1.2706 | 0.7423 | 88.83 | 400.5 |  |  |  |  | 
CC(=O)Nc1ccc(O)cc1 [semi-fine acetaminophen, acetaminophen (paracetamol)] | 1.3274 |  | 47.66 | 208.8 | 0.46 |  |  |  | 

The remaining lines, values ahead:

Skeletal (true) density [1] [g/mL] | Bulk density ([2]; after 6000 taps) [g/mL] | Sauter mean diameter [3] [μm] | d90 [3] [μm] | Bulk density ([2]; after 8000 taps) [g/mL] | Physical form of the drug in the dosage forms (Raman) ([4]; 15% mevastatin 85% PEG 3350 melt dosage forms) | Physical form of the drug in the dosage forms (Raman) [4, 5] | Physical form of the drug in the dosage forms (X-ray diffraction) [5] | Physical form of the drug in the dosage forms (X-ray diffraction) (15% naproxen 85% Pluronic F38 melt dosage forms) | SMILES
 |  |  |  |  | crystalline |  |  |  | CC[C@H](C)C(=O)O[C@H]1CCC=C2C=C[C@H](C)[C@H](CC[C@@H]3C[C@@H](O)CC(=O)O3)[C@H]21 [mevastatin]
 |  |  |  |  |  | crystalline | crystalline | crystalline | COc1ccc2cc([C@H](C)C(=O)O)ccc2c1 [naproxen]
